Data set [1] is described as follows: 1-Day stability study of prodrugs in aqueous solution. It counts as physicochemical. The settings on record: aqueous solution 80 μg/mL, ambient storage. The method, then: The L-dopa phosphate prodrugs and the carbidopa phosphate prodrugs were evaluated in a stability study.
Data set [2] can be described thus: 7-Day stability study, 4′ monophosphate combination solution. As to conditions: combination solution: L-dopa 4′-monophosphate 200 mg/mL + carbidopa 4′-monophosphate 50 mg/mL, pH 7.4, room temperature. It is filed as physicochemical. The method, then:
In addition, a solution combining the L-dopa 4′-monophosphate at 200 mg/mL and carbidopa 4′-monophosphate at 50 mg/mL was monitored over 7 days at room temperature. These samples were prepared with and without purging with nitrogen to remove oxygen.

Data set [3] can be described thus: Phosphate prodrug solubility study in water. It counts as physicochemical. The settings on record: for solubility compared to L-dopa and carbidopa (FIG. 1): pH of 7.4. The method, then: The L-dopa phosphate prodrugs and the carbidopa phosphate prodrugs were evaluated in a solubility study. The solubility values of the phosphate prodrugs in water under ambient conditions were determined by visual assessment. Table 13-A reports the results of the study, including the measured values for L-dopa and carbidopa.

Data set [4] is described as follows: In vitro bioconversion study (skin homogenates), human. As to conditions: human skin homogenate 3 mg/mL, prodrug 2.5 μg/mL, 37° C.
A short description of data set [5]: In vitro bioconversion study (skin homogenates), mini-pig. The settings on record: mini-pig skin homogenate 3 mg/mL, prodrug 2.5 μg/mL, 37° C.
Data set [6] can be described thus: In vitro bioconversion study, human liver microsomes. The settings on record: human liver microsomes 1 mg/mL, prodrug 2.5 μg/mL, 37° C. It counts as in vitro ADME. Background: Liver microsomes are vesicles of endoplasmic reticulum, rich in cytochrome P450 enzymes.
Protocol: (§2) The in vitro bioconversion of the L-dopa phosphate prodrugs to L-dopa and the carbidopa phosphate prodrugs to carbidopa was evaluated in several studies. In brief, the L-dopa and carbidopa phosphate prodrugs (2.5 μg/mL) were incubated with tissue homogenate or fractions from rats, mini-pigs, or human, including blood, skin homogenate (3 mg/mL), liver microsomes (1 mg/mL), liver S9 fraction (1 mg/mL), kidney S9 fraction (1 mg/mL), and intestine S9 fractions (1 mg/mL). The reaction mixtures were incubated at 37° C. for 5 to 6 time points within 1 to 2 hours. At the end of each time point, the reaction mixtures were quenched by 2 to 3 volumes of 5% trichloroacetic acid in water. After quenching, the mixtures were centrifuged at 3000 rpm for 20 minutes, and the supernatants were analyzed by LC-MS for quantitation of the prodrug, L-dopa or carbidopa. The in vitro bioconversion was assessed by monitoring both time-dependent depletion of the prodrug and the formation of the corresponding L-dopa or carbidopa.
Data set [7] is described as follows: In vitro bioconversion study, liver S9 fraction, rat. As to conditions: rat liver S9 fraction 1 mg/mL, prodrug 2.5 μg/mL, 37° C. It counts as in vitro ADME.
Protocol: as §2
Data set [8] is described as follows: In vitro bioconversion study, liver S9 fraction, mini-pig. It counts as in vitro ADME. The settings on record: mini-pig liver S9 fraction 1 mg/mL, prodrug 2.5 μg/mL, 37° C.
Protocol: as §2
Data set [9] in a line: In vitro bioconversion study, liver S9 fraction, human. It counts as in vitro ADME. As to conditions: human liver S9 fraction 1 mg/mL, prodrug 2.5 μg/mL, 37° C.
Protocol: as §2
Data set [10] in a line: In vitro bioconversion study, kidney S9 fraction, rat. It counts as in vitro ADME. As to conditions: rat kidney S9 fraction 1 mg/mL, prodrug 2.5 μg/mL, 37° C.
Protocol: as §2
A short description of data set [11]: In vitro bioconversion study, kidney S9 fraction, human. It is filed as in vitro ADME. The settings on record: human kidney S9 fraction 1 mg/mL, prodrug 2.5 μg/mL, 37° C.
Protocol: as §2
Data set [12] in a line: In vitro bioconversion study (intestinal S9 fractions), human. It is filed as in vitro ADME. The settings on record: human intestinal S9 fraction 1 mg/mL, prodrug 2.5 μg/mL, 37° C. An excerpt:
(§1) The t1/2 appeared to be shorter in human intestinal S9 than in rat intestinal S9.

Data set [13] is described as follows: In vitro bioconversion study (intestinal S9 fractions), rat. It counts as in vitro ADME. As to conditions: rat intestinal S9 fraction 1 mg/mL, prodrug 2.5 μg/mL, 37° C.
Excerpt: as §1

The nature of data set [14]: L-dopa 4′-monophosphate/carbidopa 4′-monophosphate 4:1, 16-hour subcutaneous infusion in rats. It is filed as in vivo. As to conditions: 4:1, SC bolus 60/14 mg/kg then infusion 300/71 mg/kg. How it is done: After 1.5 hours, the combination was dosed again via continuous infusion at a dose of 300/71 mg/kg over next 14.5 hours. Blood samples were collected at […], 0.25, 1, 6, 16, and 24 hours post dose. […] FIG. 7 provides a time-concentration profile for L-dopa and L-dopa 4′-monophosphate blood levels after administration of the combination of 4′-monophosphate prodrugs at a 4:1 ratio. […] Steady state concentration of ˜1 μg/mL was maintained over the infusion period for carbidopa. […] FIG. 9 provides a time-concentration profile for carbidopa and carbidopa 4′-monophosphate blood levels after administration of the combination of 4′-monophosphate prodrugs at a 4:1 ratio.

The conditions of data set [15]: for CLp (plasma clearance), Value / SC F (subcutaneous bioavailability), Value: human; for Bioconversion ratio (prodrug to active drug), Value: projected for human, mean of ratios observed in preclinical animals.
A short description of data set [16]: In vitro bioconversion study (blood), rat. The settings on record: prodrug 2.5 μg/mL, 37° C.
Protocol: The in vitro bioconversion of the L-dopa phosphate prodrugs to L-dopa and the carbidopa phosphate prodrugs to carbidopa was evaluated in several studies. […] The reaction mixtures were incubated at 37° C. for 5 to 6 time points within 1 to 2 hours. At the end of each time point, the reaction mixtures were quenched by 2 to 3 volumes of 5% trichloroacetic acid in water. After quenching, the mixtures were centrifuged at 3000 rpm for 20 minutes, and the supernatants were analyzed by LC-MS for quantitation of the prodrug, L-dopa or carbidopa. The in vitro bioconversion was assessed by monitoring both time-dependent depletion of the prodrug and the formation of the corresponding L-dopa or carbidopa.
A short description of data set [17]: 15:1 L-dopa 4′-monophosphate/carbidopa 4′-monophosphate 16-hour SC infusion in mini-pigs. As to conditions: 15:1, 48/3.2 mg/kg.
Protocol: In this study, the pig received a 16-hour subcutaneous infusion of a combination of the L-dopa 4′-monophosphate and the carbidopa 4′-monophosphate together in an aqueous solution at a dose ratio of 15:1 without an initial bolus dose. The doses were 48/3.2 mg/kg for L-dopa 4′-monophosphate and the carbidopa 4′-monophosphate, respectively.
Data set [18] in a line: 1-Day stability study, diphosphate combination solution. It counts as physicochemical. The settings on record: combination solution: L-dopa 3′,4′-diphosphate 35 mg/mL + carbidopa 3′,4′-diphosphate 8.7 mg/mL, pH 6.2, room temperature, nitrogen purged. The method, then: In addition, a solution combining the diphosphates of each compound (L-dopa 3′, 4′-diphosphate at 35 mg/mL and carbidopa 3′, 4′-diphosphate at 8.7 mg/mL) was monitored over one day at room temperature. This sample was purged with nitrogen to remove oxygen.

Data set [19] is described as follows: In vitro bioconversion study (blood), human. It counts as in vitro ADME. As to conditions: prodrug 2.5 μg/mL, 37° C.
Protocol: as §2
Data set [20] in a line: In vitro bioconversion study (blood), mini-pig. It is filed as in vitro ADME. The settings on record: prodrug 2.5 μg/mL, 37° C.
Protocol: as §2
The nature of data set [21]: In vitro bioconversion study (skin homogenates), rat. As to conditions: rat skin homogenate 3 mg/mL, prodrug 2.5 μg/mL, 37° C.
Setting [22] is: listed as 4′-phosphate prodrug of carbidopa.
Where [23] appears, read: listed as 3′,4′-diphosphate prodrug of carbidopa.
The mark [24] stands for this setting: listed as diphosphate prodrug of carbidopa.
Setting [25] is: listed as 4′-phosphate prodrug of L-dopa.

Molecules are shown by their SMILES.

Turning to `C[C@@](Cc1ccc(OP(=O)(O)O)c(O)c1)(NN)C(=O)O` [Carbidopa 4′-phosphate, Carbidopa 4′-monophosphate], in [1] (pH 6.8), the “% Remaining After One Day” value is reported as greater than 98%. In addition, the “% Remaining After 7 Days” value is greater than 99% in data set [2] (Nitrogen Purged) and greater than 97% in [2] (Non-Purged). In addition, in [3], the “solubility compared to L-dopa and carbidopa (FIG. 1)” value is recorded as “increased solubility”. Also, the “L-Dopa or Carbidopa Formation” value in [4], in [5], in data set [12], in data set [13] and in [16] was “Yes” in each case. In addition, the “stability and formation of L-dopa or carbidopa” value (shortened to “stability and formation”) in data set [6], in [7], in data set [8], in [9], in [10] and in [11] was “stable without formation of L-dopa or carbidopa observed” throughout. Further, the T1/2 entry in data set [12] (setting [22]) and in [13] (setting [22]) was “rapidly dephosphorylated” in each case. Moreover, the “exposure of remaining carbidopa 4′-monophosphate as % of carbidopa” value in data set [14] was roughly 8%. Besides, the “CLp (plasma clearance), Value” in [15] amounted to 141 L/h. In addition, the “SC F (subcutaneous bioavailability), Value” in [15] was 0.65. Moreover, in data set [15], the “Bioconversion ratio (prodrug to active drug), Value” amounted to 0.7. Also, in data set [17], the “exposure of remaining carbidopa 4′-monophosphate as % of the carbidopa exposure” value was roughly 22%.

Broadly, the Solubility is the concentration that dissolves in the medium under given conditions. As for `C[C@@](Cc1ccc(OP(=O)(O)O)c(OP(=O)(O)O)c1)(NN)C(=O)O` [Carbidopa 3′,4′-diphosphate], the “% Remaining After One Day” value in data set [1] (pH 6.8) is greater than 97%; in data set [18], greater than 99%. Moreover, the Solubility in [3] (water, ambient, visual assessment, pH 5.5, Amorphous) is listed as greater than 247 mg/mL. Also, the “L-Dopa or Carbidopa Formation” value in [19] is given as “No”; in [20], “No”; in data set [4], “No”; in data set [21], “No”; in [5] it was “No”; in data set [12], “Yes”. The “L-Dopa or Carbidopa Formation” value in [13] and in data set [16] was “Yes” throughout. The T1/2 entry in [19] (setting [23]) is reported as “stable”; in [19] (setting [24]), “not dephosphorylated”; in data set [20] (setting [23]) it was “stable”; in data set [20] (setting [24]) it was “not dephosphorylated”; in data set [4], “stable”; in data set [21], “stable”. Further, the T1/2 entry is “stable” in data set [5], “rapidly dephosphorylated” in data set [12] (setting [24]), “rapidly dephosphorylated” in data set [13] (setting [24]) and 53 min in [16]. Also, the “stability and formation” value in [6], in data set [7], in data set [8], in data set [9], in data set [10] and in [11] was “stable without formation of L-dopa or carbidopa observed” in each case.

For the compound `N[C@@H](Cc1ccc(OP(=O)(O)O)c(O)c1)C(=O)O` [L-dopa 4′-phosphate, (S)-2-amino-3-(3-hydroxy-4-(phosphonooxy)phenyl)propanoic acid], in data set [1] (pH 7.0), the “% Remaining After One Day” value was greater than 99%. Besides, the “% Remaining After 7 Days” value in [2] (Nitrogen Purged) and in [2] (Non-Purged) was greater than 99% in each case. The “solubility compared to L-dopa and carbidopa (FIG. 1)” value in data set [3] was “increased solubility”. Also, the “L-Dopa or Carbidopa Formation” value in [4], in data set [5], in [12], in data set [13] and in [16] was “Yes” throughout. Also, the “stability and formation” value in [7], in [8], in data set [9], in data set [10] and in [11] was “stable without formation of L-dopa or carbidopa observed” in each case. Further, the T1/2 result in data set [12] (setting [25]) and in data set [13] (setting [25]) was “rapidly dephosphorylated” each time. Besides, the “exposure of remaining L-dopa 4′-monophosphate as % of levodopa” value in data set [14] is roughly 22%. Also, the “CLp (plasma clearance), Value” in [15] amounted to 100 L/h. Also, the “SC F (subcutaneous bioavailability), Value” in data set [15] was 0.75. Besides, in data set [15], the “Bioconversion ratio (prodrug to active drug), Value” is listed as 0.9. The “exposure of remaining L-dopa 4′-monophosphate as % of the levodopa exposure” value in data set [17] is roughly 10%.

These data come from US20240024338A1, “CARBIDOPA AND L-DOPA PRODRUGS AND METHODS OF USE” (AbbVie Inc., priority 2016, published 2024).
